Source: PubChem BioAssay AID1195 (EPA DSSTox, 2008)
Starred links: 1 amine or outer side, 2 acyl side, 3 side chain; linkers in the order of their positions; H or OH if unused. Positions of bridges follow the written chain, without caps; N, C: chain ends. Non-standard residues stand in square brackets, D forms with d. Residues, ends and D or L forms follow the SMILES beside them. Chains are numbered I, II in the order given. Actinocin(9to1) = Cc1c2oc3c(C)ccc(C(=O)[*:1])c3nc-2c(C(=O)[*:2])c(N)c1=O; NMeV = CN[C@H](C(=O)O)C(C)C; Sar = CNCC(=O)O

System: human maximum recommended daily dose, FDA database
Assay: DSSTox (FDAMDD) FDA Maximum (Recommended) Daily Dose Database
Details: active compounds read low
In short: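 MRDD values come from clinical trials with daily oral dosing, usually for 3–12 months, for the average adult, in mg/day converted to mg/kg-bw/day assuming 60 kg. Antineoplastic mg/m2 doses are divided by 37. Activity score maps log10(1/MRDD mmol) onto 1–100.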

[1] = TherapeuticCategory: diagnostic aid
[2] = TherapeuticCategory: antibacterial
[3] = TherapeuticCategory: antineoplastic
[4] = TherapeuticCategory: anticholinergic
[5] = TherapeuticCategory: antihistaminic
[6] = TherapeuticCategory: antiulcerative
[7] = TherapeuticCategory: anti inflammatory

## C#CCN1C(=O)CN=C(c2ccccc2)c2cc(Cl)ccc21
TherapeuticCategory: anxiolytic
  maximum recommended daily dose (mmol/kg-bw/day): 0.00108

## CC(=O)Nc1c(I)c(C(=O)N[C@H]2C(O)O[C@H](CO)[C@@H](O)[C@@H]2O)c(I)c(N(C)C(C)=O)c1I (stereo partly specified)
[1]
  maximum recommended daily dose (mmol/kg-bw/day): 0.132

## C=CC1=C(C(=O)O)N2C(=O)[C@@H](NC(=O)/C(=N\OCC(=O)O)c3csc(N)n3)[C@H]2SC1
[2]
  maximum recommended daily dose (mmol/kg-bw/day): 0.0293

## NC(CO)(CO)CO
TherapeuticCategory: alkalizer
  maximum recommended daily dose (mmol/kg-bw/day): 2.48

## CO/N=C(\C(=O)N[C@@H]1C(=O)N2C(C(=O)O)=C(CSc3nc(=O)c(=O)[nH]n3C)CS[C@H]12)c1csc(N)n1
[2]
  maximum recommended daily dose (mmol/kg-bw/day): 0.12

## Cc1c2oc3c(C)ccc(C(=O)N[C@@H]4C(=O)N[C@H](C(C)C)C(=O)N5CCC[C@H]5C(=O)N(C)CC(=O)N(C)[C@@H](C(C)C)C(=O)O[C@@H]4C)c3nc-2c(C(=O)N[C@@H]2C(=O)N[C@H](C(C)C)C(=O)N3CCC[C@H]3C(=O)N(C)CC(=O)N(C)[C@@H](C(C)C)C(=O)O[C@@H]2C)c(N)c1=O (I: T[dV]P[Sar][NMeV] / II: T[dV]P[Sar][NMeV]; ester I:1-I:C, II:1-II:C; linker I:N-II:N via Actinocin(9to1))
[3]
  maximum recommended daily dose (mmol/kg-bw/day): 1.19e-05

## CCCc1nn(C)c2c(=O)[nH]c(-c3cc(S(=O)(=O)N4CCN(C)CC4)ccc3OCC)nc12
TherapeuticCategory: erectile disfunction treatment
  maximum recommended daily dose (mmol/kg-bw/day): 0.00352

## Oc1c(Cl)cc(Cl)c2cccnc12
TherapeuticCategory: antiseborrhetic
  maximum recommended daily dose (mmol/kg-bw/day): 0.312

## O=NN(CCCl)C(=O)NCCCl
[3]
  maximum recommended daily dose (mmol/kg-bw/day): 0.000389

## C#CC1(OC(N)=O)CCCCC1
TherapeuticCategory: sedative, hypnotic
  maximum recommended daily dose (mmol/kg-bw/day): 0.0999

## CO/N=C(\C(=O)N[C@@H]1C(=O)N2C(C(=O)O)=CCS[C@H]12)c1csc(N)n1
[2]
  maximum recommended daily dose (mmol/kg-bw/day): 0.261

## Cc1ncc(C[n+]2csc(CCO)c2C)c(N)n1
TherapeuticCategory: enzyme cofactor vitamin
  maximum recommended daily dose (mmol/kg-bw/day): 0.00555

## C[N+]1(C)CCC(OC(=O)CC(O)(c2ccccc2)C2CCCC2)C1 (stereo unspecified)
[4]
  maximum recommended daily dose (mmol/kg-bw/day): 0.000162

## CCOc1cc(CC(=O)N[C@@H](CC(C)C)c2ccccc2N2CCCCC2)ccc1C(=O)O
TherapeuticCategory: antidiabetic
  maximum recommended daily dose (mmol/kg-bw/day): 0.00059

## CC(N)C12CC3CC(CC(C3)C1)C2 (stereo unspecified)
TherapeuticCategory: antiviral
  maximum recommended daily dose (mmol/kg-bw/day): 0.0186

## CN[C@@H]1[C@@H](O)[C@@H](O[C@@H]2[C@@H](O)[C@H](OC3OC(CN)=CCC3N)[C@@H](N)C[C@H]2N)OC[C@]1(C)O (stereo partly specified)
[2]
  maximum recommended daily dose (mmol/kg-bw/day): 0.0067

## CNC(C)(C)Cc1ccccc1
TherapeuticCategory: adrenergic
  maximum recommended daily dose (mmol/kg-bw/day): 0.00613

## CN1CCC(=C2c3ccccc3C=Cc3ccccc32)CC1
TherapeuticCategory: antihistaminic, antipruritic
  maximum recommended daily dose (mmol/kg-bw/day): 0.00174

## CN1[C@@H]2CC[C@H]1CC(OC(=O)C(O)c1ccccc1)C2 (stereo partly specified)
[4]
  maximum recommended daily dose (mmol/kg-bw/day): 0.0018

## CC1(C)S[C@@H]2[C@H](NC(=O)[C@H](N)c3ccc(O)cc3)C(=O)N2[C@H]1C(=O)O
[2]
  maximum recommended daily dose (mmol/kg-bw/day): 0.0596

## CC(C)(C)NCC(O)c1cc(O)cc(O)c1 (stereo unspecified)
TherapeuticCategory: bronchodilator, tocolytic
  maximum recommended daily dose (mmol/kg-bw/day): 0.00111

## CC1(C)S[C@@H]2[C@H](NC(=O)[C@H](N)c3ccccc3)C(=O)N2[C@H]1C(=O)O
[2]
  maximum recommended daily dose (mmol/kg-bw/day): 0.167

## C[C@]12CC[C@H]3[C@@H](CCC4=CC(=O)CC[C@@H]43)[C@@H]1CC[C@@H]2OC(=O)CCc1ccccc1
TherapeuticCategory: anabolic steroid
  maximum recommended daily dose (mmol/kg-bw/day): 0.00819

## Cc1cn([C@H]2C[C@H](O)[C@@H](CO)O2)c(=O)[nH]c1=O
TherapeuticCategory: none
  maximum recommended daily dose (mmol/kg-bw/day): 0.413

## CC(CN(C)C)CN1c2ccccc2S(=O)(=O)c2ccccc21 (stereo unspecified)
[5]
  maximum recommended daily dose (mmol/kg-bw/day): 0.00202

## OCCN1CCN(CCCN2c3ccccc3Sc3ccc(Cl)cc32)CC1
TherapeuticCategory: antipsychotic, dopamine receptor antagonist
  maximum recommended daily dose (mmol/kg-bw/day): 0.00099

## CNC(C)[C@@H]1CC[C@@H](N)[C@@H](O[C@H]2[C@H](O)[C@@H](O[C@H]3OC[C@](C)(O)[C@H](NC)[C@H]3O)[C@H](N)C[C@@H]2N)O1 (stereo partly specified)
[2]
  maximum recommended daily dose (mmol/kg-bw/day): 0.00628

## CN1CCC(OC(c2ccccc2)c2ccccc2)CC1
[5]
  maximum recommended daily dose (mmol/kg-bw/day): 0.00118

## Cc1onc(-c2ccccc2)c1C(=O)N[C@@H]1C(=O)N2[C@@H]1SC(C)(C)[C@@H]2C(=O)O
[2]
  maximum recommended daily dose (mmol/kg-bw/day): 0.249

## CCCCCCCCCC(=O)O[C@H]1CC[C@H]2[C@@H]3CCC4=CC(=O)CC[C@@H]4[C@H]3CC[C@]12C
TherapeuticCategory: anabolic
  maximum recommended daily dose (mmol/kg-bw/day): 0.00777

## O=C(CCBr)N1CCN(C(=O)CCBr)CC1
[3]
  maximum recommended daily dose (mmol/kg-bw/day): 0.00843

## COc1ccnc(CS(=O)c2nc3ccc(OC(F)F)cc3[nH]2)c1OC (stereo unspecified)
[6]
  maximum recommended daily dose (mmol/kg-bw/day): 0.00174

## CSc1ccc2c(c1)N(CCC1CCCCN1C)c1ccccc1S2 (stereo unspecified)
TherapeuticCategory: antipsychotic
  maximum recommended daily dose (mmol/kg-bw/day): 0.0359

## CN(C)C=Nc1c(I)cc(I)c(CCC(=O)O)c1I
[1]
  maximum recommended daily dose (mmol/kg-bw/day): 0.167

## CCn1cc(C(=O)O)c(=O)c2cc3c(cc21)OCO3
[2]
  maximum recommended daily dose (mmol/kg-bw/day): 0.0957

## CO[C@H]1C[C@H](O[C@H]2[C@H](C)[C@@H](O[C@@H]3O[C@H](C)C[C@H](N(C)C)[C@H]3OC(C)=O)[C@@H](C)C[C@]3(CO3)C(=O)[C@H](C)[C@@H](OC(C)=O)[C@@H](C)[C@@H](C)OC(=O)[C@@H]2C)O[C@@H](C)[C@@H]1OC(C)=O
[2]
  maximum recommended daily dose (mmol/kg-bw/day): 0.0409

## Nc1ccn([C@H]2CS[C@@H](CO)O2)c(=O)n1
TherapeuticCategory: antiviral
  maximum recommended daily dose (mmol/kg-bw/day): 0.0218

## Cn1c(=O)c2c(ncn2CC2OCCO2)n(C)c1=O
TherapeuticCategory: bronchodilator
  maximum recommended daily dose (mmol/kg-bw/day): 0.05

## C=CCN1CC[C@]23c4c5ccc(O)c4O[C@H]2[C@@H](O)C=C[C@H]3[C@H]1C5
TherapeuticCategory: narcotic antagonist
  maximum recommended daily dose (mmol/kg-bw/day): 0.00214

## OCCN(CCO)c1nc(-c2ccccc2)c(-c2ccccc2)o1
[7]
  maximum recommended daily dose (mmol/kg-bw/day): 0.0617

## CC(C)CC(N(C)C)C1(c2ccc(Cl)cc2)CCC1 (stereo unspecified)
TherapeuticCategory: anorexic
  maximum recommended daily dose (mmol/kg-bw/day): 0.000893

## COc1ccc(CCN2CCC(Nc3nc4ccccc4n3Cc3ccc(F)cc3)CC2)cc1
TherapeuticCategory: antiallergic, antiarrhythmic
  maximum recommended daily dose (mmol/kg-bw/day): 0.000364

## O=C(O)C1=C(CSc2nnnn2CS(=O)(=O)O)CS[C@@H]2[C@H](NC(=O)[C@H](O)c3ccccc3)C(=O)N12
[2]
  maximum recommended daily dose (mmol/kg-bw/day): 0.0308

## CN(Cc1cc(Br)cc(Br)c1N)C1CCCCC1
TherapeuticCategory: expectorant, mucolytic
  maximum recommended daily dose (mmol/kg-bw/day): 0.00213

## O=C(O)[C@H](O)[C@@H](O)C(=O)O
TherapeuticCategory: none
  maximum recommended daily dose (mmol/kg-bw/day): 0.2

## CC(O)C(=O)O (stereo unspecified)
TherapeuticCategory: acidulant
  maximum recommended daily dose (mmol/kg-bw/day): 1.11

## O=C(O)CCC(=O)c1ccc(-c2ccccc2)cc1
[7]
  maximum recommended daily dose (mmol/kg-bw/day): 0.059

## COc1ccc2nc(S(=O)Cc3ncc(C)c(OC)c3C)[nH]c2c1 (stereo unspecified)
[6]
  maximum recommended daily dose (mmol/kg-bw/day): 0.00579

## C#CC(C)(O)CC (stereo unspecified)
TherapeuticCategory: hypnotic, sedative
  maximum recommended daily dose (mmol/kg-bw/day): 0.17

## CCC(=O)O[C@]1(C(=O)COC(C)=O)CC[C@H]2[C@@H]3C[C@H](C)C4=CC(=O)C=C[C@]4(C)[C@H]3[C@@H](O)C[C@@]21C
TherapeuticCategory: glucocorticoid
  maximum recommended daily dose (mmol/kg-bw/day): 0.00882

## Nc1ccc(S(=O)(=O)c2ccc(N)cc2)cc1
TherapeuticCategory: antibacterial, dermatitis herpetiformis suppressant
  maximum recommended daily dose (mmol/kg-bw/day): 0.0201

## O=C(OCCN1CCCCC1)C(O)(c1ccccc1)c1ccccc1
TherapeuticCategory: anticholinergic, antispasmodic
  maximum recommended daily dose (mmol/kg-bw/day): 0.00392

## O=C(O)CCC(=O)c1ccc2c(c1)-c1cccc3cccc-2c13
TherapeuticCategory: choleretic
  maximum recommended daily dose (mmol/kg-bw/day): 0.0552

## C[N+]1(C)CCCC(OC(=O)C(O)(c2ccccc2)c2ccccc2)C1 (stereo unspecified)
[4]
  maximum recommended daily dose (mmol/kg-bw/day): 0.00792

## NCCCC(O)(P(=O)(O)O)P(=O)(O)O
TherapeuticCategory: antiosteoporotic
  maximum recommended daily dose (mmol/kg-bw/day): 0.00268

## C[N+]1(C)CCC(=C(c2ccccc2)c2ccccc2)CC1
[4]
  maximum recommended daily dose (mmol/kg-bw/day): 0.0341

## NS(=O)(=O)c1cc2c(cc1Cl)NCNS2(=O)=O
TherapeuticCategory: diuretic
  maximum recommended daily dose (mmol/kg-bw/day): 0.0112

## CCCCC(C(=O)O)C(=O)N(Nc1ccccc1)c1ccccc1 (stereo unspecified)
TherapeuticCategory: analgesic, antipyretic, anti inflammatory
  maximum recommended daily dose (mmol/kg-bw/day): 0.0337

## N[C@@H](CC(=O)O)C(=O)O
TherapeuticCategory: roborant
  maximum recommended daily dose (mmol/kg-bw/day): 0.751

## N[C@@H](C(=O)N[C@@H]1C(=O)N2C(C(=O)O)=C(CSc3cn[nH]n3)CS[C@H]12)c1ccc(O)cc1
[2]
  maximum recommended daily dose (mmol/kg-bw/day): 0.0361

## O=c1oc2ccccc2c(O)c1Cc1c(O)c2ccccc2oc1=O
TherapeuticCategory: anticoagulant
  maximum recommended daily dose (mmol/kg-bw/day): 0.0149
